Source: paper PMC7369893, “Antimicrobial Peptides Display Strong Synergy with Vancomycin Against Vancomycin-Resistant E. faecium, S. aureus, and Wild-Type E. coli” (International Journal of Molecular Sciences, 2020)
≈ marks a conversion by molar mass, not a printed value. Read-outs that look alike come from different tables or passages of the source. Non-standard residues stand in square brackets, D forms with d. Residues, ends and D or L forms follow the SMILES beside them. Dip = N[C@H](C(=O)O)C(c1ccccc1)c1ccccc1

Key:
[1] = tested on: E. faecium BCRC 15B0132 (VRE); experiment: microbe, parasite or virus in culture; type: cell-based, Enterococcus faecium
Procedure: (§1) The antibacterial activities of peptides were determined by the standard broth microdilution method according to the guidelines of the Clinical and Laboratory Standards Institute (CLSI). Briefly, E. coli ATCC 25922 were incubated in MHB, and E. faecium BCRC 15B0132, VISA and VRSA strains were incubated in TSB overnight at 37 °C. The cell cultures were regrown to the mid-log phase and subsequently diluted to a final concentration of 5 × 10^5 CFU/mL. The 1 µL peptides or antibiotic were loaded into each well at the final concentration of 64, 32, 16, 8, 4, 2, 1, and 0.5 µg/mL, then loaded 99 µL diluted microbes into each well of polypropylene 96-well plate. After 16 h of incubation at 37 °C, the turbidity at OD600 was measured by the microplate reader. The minimal inhibitory concentration (MIC) value was defined as the lowest concentration of peptide or antibiotic, which inhibited the 90% visible growth of bacteria. All experiments were repeated three times independently.

[2] = tested on: Vancomycin-intermediate S. aureus 01 (VISA01); experiment: microbe, parasite or virus in culture; type: cell-based, Staphylococcus aureus
Procedure: as §1

[3] = tested on: Vancomycin-intermediate S. aureus 02 (VISA02); experiment: microbe, parasite or virus in culture; type: cell-based, Staphylococcus aureus
Procedure: as §1

[4] = tested on: Vancomycin-intermediate S. aureus 03 (VISA03); experiment: microbe, parasite or virus in culture; type: cell-based, Staphylococcus aureus
Procedure: as §1

[5] = tested on: Vancomycin-resistant S. aureus 01 (VRSA01); experiment: microbe, parasite or virus in culture; type: cell-based, Staphylococcus aureus; conditions: 16 h
Procedure: (§2) For the purpose of inducing vancomycin-resistant Staphylococcus aureus (VRSA), the VISA01, VISA02, and VISA03 bacteria were incubated overnight in culture medium, and transferring 50 µL of bacteria to 5 mL of fresh medium containing 2 μg/mL of vancomycin then incubated overnight. The bacteria were transferred to new tube with doubling vancomycin concentration and then incubated overnight again. The concentration of vancomycin during serial passage was 2, 4, 8, 16, and 32 µg/mL. The procedure was repeated until meeting the final concentration of 32 µg/mL. After serial passage, the cell resistance was confirmed by using an MIC assay.
as §1

[6] = tested on: Vancomycin-resistant S. aureus 02 (VRSA02); experiment: microbe, parasite or virus in culture; type: cell-based, Staphylococcus aureus; conditions: 16 h
Procedure: as §2, §1

[7] = tested on: Vancomycin-resistant S. aureus 03 (VRSA03); experiment: microbe, parasite or virus in culture; type: cell-based, Staphylococcus aureus; conditions: 16 h
Procedure: as §2, §1

[8] = tested on: E. coli ATCC 25922; experiment: microbe, parasite or virus in culture; type: cell-based, Escherichia coli
Procedure: as §1

[9] = tested on: VRE, VISA, VRSA and E. coli strains; experiment: Checkerboard assay, summary statements of the text over the strain panel; type: cell-based; conditions: peptide at ¼ ×MIC combined with vancomycin, all strains studied
Procedure: The synergistic effects of peptides in combination with vancomycin were investigated by checkerboard assay with slight modification. The peptides were fixed concentration at ¼ × MIC, then in combination with antibiotics at various concentrations in each well of 96-well plate. Then the peptide/antibiotic were mixed with inoculum (5 × 10^5 CFU/mL) and incubated at 37 °C for 16 h. The fractional inhibitory concentration (FIC) index was calculated as follows: FIC index = (MIC of drug A in combination/MIC of drug A alone) + (MIC of drug B in combination/MIC of drug B alone). An FIC index of ≤ 0.5 was defined as synergy, indifference was defined as an FIC index of 0.5 < FICI ≤ 4, antagonism was defined as an FIC index of > 4. The experiments were performed in triplicate.

[10] = tested on: E. faecium BCRC 15B0132 (VRE); experiment: Time killing assay; type: cell-based, Enterococcus faecium; conditions: 5 × 10^5 CFU/mL, 1 × MIC, 0.5-24 h, 37 °C, triplicate
Procedure: (§3) The bactericidal activities of vancomycin, P-113, Phe-P-113, Bip-P-113, Dip-P-113, and Nal-P-113 against E. faecium BCRC 15B0132 (VRE) and E. coli ATCC 25922 were assessed by the time-kill analysis. The cells were grown overnight in TSB or MHB at 37 °C with shaking, and then fresh TSB or MHB was inoculated for growth to mid-logarithmic phase. Bacteria (5 × 10^5 CFU/mL) were treated with 1 × MIC vancomycin, P-113, Phe-P-113, Bip-P-113, Dip-P-113, and Nal-P-113 for 0.5, 1, 2, 4, 6, 10, and 24 h at 37 °C. Bacteria without peptides and vancomycin served as a control. Aliquots were removed at each time points, and 10-fold serial dilutions of the aliquot were plated onto the Müller-Hinton agar. The numbers of CFU were counted after 24 h of incubation at 37 °C. The detection limit for the colony counts was 2log10 CFU/mL.

[11] = tested on: E. faecium BCRC 15B0132; experiment: Uptake of BODIPY-labeled vancomycin, confocal laser scanning microscopy; type: cell-based, Enterococcus faecium; conditions: VRE 10^7 CFU/mL, 0.5 ×MIC peptide 30 min at 37 °C, then BODIPY-labeled vancomycin (2 μg/mL) 30 min; mean fluorescence intensity
Procedure: (§4) The fluorescence experiments were performed with slight modification as described previously. Briefly, the bacteria (10^7 CFU/mL) were incubated with 0.5 ×MIC antimicrobial peptides for 30 min and then treated with BODIPY-labeled vancomycin (2 μg/mL) for 30 min. Samples treated with BODIPY-labeled vancomycin only served as a control. After incubation, bacteria were centrifuged at 8000× g for 5 min, washed three times with PBS to remove unbinding fluorescence dye, and resuspended by PBS. The resuspended solution were loaded on the glass slides (Polysine™, Thermo Fisher Scientific, Waltham, MA, USA) and visualized under confocal laser scanning microscope (LSM 510 META, Carl Zeiss, Jena, Thüringen, Germany) equipped with a 64× oil objective lens (Carl Zeiss, Jena, Thüringen, Germany).

[12] = tested on: E. coli ATCC 25922; experiment: as above; type: cell-based, Escherichia coli; conditions: E. coli 10^7 CFU/mL, 0.5 ×MIC peptide 30 min at 37 °C, then BODIPY-labeled vancomycin (2 μg/mL) 30 min; mean fluorescence intensity
Procedure: as §4

[13] = POPC:POPG (3:1, mol/mol) and POPC:LPS (4:1, mol/mol) LUVs; cited from earlier work
Text: Dathe and coauthors used POPC:LPS as model prokaryotic membranes to study peptide activity against E. coli and the role of LPS [20]. Previously, we have evaluated the membrane-permeability of P-113 and its derivatives by measuring the release of calcein from various phospholipid vesicles such as POPC:POPG (3:1, mol/mol) LUVs (mimic the anionic bacterial membrane) and POPC:LPS (4:1, mol/mol) LUVs (served as surrogates of Gram-negative bacterial membranes that contain LPS). […] Nal- ...

[14] = tested on: human fibroblasts (HFW); conditions: peptide >25 µg/mL; cited from earlier work
[15] = tested on: VRE, VISA, VRSA, and E. coli strains; experiment: microbe, parasite or virus in culture; type: cell-based; conditions: for MICs against these bacterial strains: 16 h; for MIC: Staphylococcus aureus
Procedure: as §1

[16] = tested on: E. coli ATCC 25922; experiment: Time killing assay; type: cell-based, Escherichia coli; conditions: E. coli ATCC 25922, 5 × 10^5 CFU/mL, 1 × MIC, 0.5-24 h, 37 °C; triplicate
Procedure: as §3

[17] = Vancomycin-intermediate 01 (VISA01, 16 h)
[18] = Vancomycin-intermediate 02 (VISA02, 16 h)
[19] = Vancomycin-intermediate 03 (VISA03, 16 h)
[20] = VRSA01 (induced from VISA01 by serial passage), CLSI broth microdilution, TSB, 5 × 10^5 CFU/mL, 37 °C, triplicate
[21] = VRSA02 (induced from VISA02 by serial passage), CLSI broth microdilution, TSB, 5 × 10^5 CFU/mL, 37 °C, triplicate
[22] = VRSA03 (induced from VISA03 by serial passage), CLSI broth microdilution, TSB, 5 × 10^5 CFU/mL, 37 °C, triplicate

SMILES	MIC ([1]; BCRC 15, 16 h) [µg/mL]	MIC [2, 17] [µg/mL]	MIC [3, 18] [µg/mL]	MIC [4, 19] [µg/mL]	MIC [5, 20] [µg/mL]	MIC [6, 21] [µg/mL]	MIC [7, 22] [µg/mL]	MIC ([8]; ATCC 25922, 16 h) [µg/mL]	synergy with vancomycin (interpretation of FICI) [9]	killing kinetics [10]	entry of BODIPY-labeled vancomycin into the bacteria (rank order) [11]	entry of BODIPY-labeled vancomycin into the bacteria (rank order) [12]	calcein leakage from LUVs [13]	MICs against these bacterial strains [15] [µg/mL]	killing kinetics [16]	also measured
CC(=O)N[C@@H](C)C(=O)N[C@@H](CCCCN)C(=O)N[C@@H](CCCNC(=N)N)C(=O)N[C@H](C(=O)N[C@H](C(=O)NCC(=O)N[C@@H](Cc1ccc(O)cc1)C(=O)N[C@@H](CCCCN)C(=O)N[C@@H](CCCNC(=N)N)C(=O)N[C@@H](CCCCN)C(=O)N[C@@H](Cc1ccccc1)C(=O)N[C@H](C(N)=O)C(c1ccccc1)c1ccccc1)C(c1ccccc1)c1ccccc1)C(c1ccccc1)c1ccccc1 [Dip-P-113] (Ac-AKR[Dip][Dip]GYKRKF[Dip]-NH2)	4 (≈ 2.15 µM)	16 (≈ 8.58 µM)	16 (≈ 8.58 µM)	16 (≈ 8.58 µM)	32 (≈ 17.2 µM)	32 (≈ 17.2 µM)	32 (≈ 17.2 µM)	64 (≈ 34.3 µM)	synergistic effects against VRE, VRSA 02, and E. coli	rapid bactericidal activity	Bip-P-113 = Nal-P-113 > Dip-P-113 > Phe-P-113 = P-113	Bip-P-113 > Nal-P-113 > Dip-P-113 > Phe-P-113 = P-113	dose-dependent calcein leakage	–	–	cell death (MTT) [14]: 10–20%
CC(=O)N[C@@H](C)C(=O)N[C@@H](CCCCN)C(=O)N[C@@H](CCCNC(=N)N)C(=O)N[C@@H](Cc1c[nH]cn1)C(=O)N[C@@H](Cc1c[nH]cn1)C(=O)NCC(=O)N[C@@H](Cc1ccc(O)cc1)C(=O)N[C@@H](CCCCN)C(=O)N[C@@H](CCCNC(=N)N)C(=O)N[C@@H](CCCCN)C(=O)N[C@@H](Cc1ccccc1)C(=O)N[C@@H](Cc1c[nH]cn1)C(N)=O [P-113] (Ac-AKRHHGYKRKFH-NH2)	>64	>64	>64	>64	>64	>64	>64	>64	no synergy	slower or limited killing kinetics	Bip-P-113 = Nal-P-113 > Dip-P-113 > Phe-P-113 = P-113	Bip-P-113 > Nal-P-113 > Dip-P-113 > Phe-P-113 = P-113	only weak abilities in causing calcein leakage	> 64	limited bactericidal activity	–
CC(=O)N[C@@H](C)C(=O)N[C@@H](CCCCN)C(=O)N[C@@H](CCCNC(=N)N)C(=O)N[C@@H](Cc1ccccc1)C(=O)N[C@@H](Cc1ccccc1)C(=O)NCC(=O)N[C@@H](Cc1ccc(O)cc1)C(=O)N[C@@H](CCCCN)C(=O)N[C@@H](CCCNC(=N)N)C(=O)N[C@@H](CCCCN)C(=O)N[C@@H](Cc1ccccc1)C(=O)N[C@@H](Cc1ccccc1)C(N)=O [Phe-P-113] (Ac-AKRFFGYKRKFF-NH2)	>64	>64	>64	>64	>64	>64	>64	>64	no synergy	slower or limited killing kinetics	Bip-P-113 = Nal-P-113 > Dip-P-113 > Phe-P-113 = P-113	Bip-P-113 > Nal-P-113 > Dip-P-113 > Phe-P-113 = P-113	only weak abilities in causing calcein leakage	> 64	limited bactericidal activity	–
CN[C@H](CC(C)C)C(=O)N[C@H]1C(=O)N[C@@H](CC(N)=O)C(=O)N[C@H]2C(=O)N[C@H]3C(=O)N[C@H](C(=O)N[C@H](C(=O)O)c4cc(O)cc(O)c4-c4cc3ccc4O)[C@H](O)c3ccc(c(Cl)c3)Oc3cc2cc(c3O[C@@H]2O[C@H](CO)[C@@H](O)[C@H](O)[C@H]2O[C@H]2C[C@](C)(N)[C@H](O)[C@H](C)O2)Oc2ccc(cc2Cl)[C@H]1O [Vancomycin]	–	–	–	–	–	–	–	–	–	slower or limited killing kinetics	–	–	–	–	limited bactericidal activity	MIC ([1]; E. faecium BCRC 15B0132 (VRE), CLSI broth microdilution, TSB, 5 × 10^5 CFU/mL, 16 h, 37 °C, OD600, 90% growth inhibition, triplicate): 64 µg/mL (≈ 44.2 µM); MIC ([1]; Enterococcus faecium, VRE, 16 h): 64 µg/mL (≈ 44.2 µM); MIC ([2]; Staphylococcus aureus, 16 h): 4 µg/mL (≈ 2.76 µM); MIC ([3]; Staphylococcus aureus, 16 h): 4 µg/mL (≈ 2.76 µM); MIC ([4]; Staphylococcus aureus, 16 h): 4 µg/mL (≈ 2.76 µM); MIC ([5]; Staphylococcus aureus): 32 µg/mL (≈ 22.1 µM); MIC ([6]; Staphylococcus aureus): 32 µg/mL (≈ 22.1 µM); MIC ([7]; Staphylococcus aureus): 32 µg/mL (≈ 22.1 µM); MIC ([8]; E. coli ATCC 25922, CLSI broth microdilution, MHB, 5 × 10^5 CFU/mL, 16 h, 37 °C, OD600, 90% growth inhibition, triplicate): > 64 µg/mL; MIC ([8]; Escherichia coli, ATCC25922, 16 h): > 64 µg/mL; MIC ([15]; read-out: MIC against VISA strains): 4 µg/mL (≈ 2.76 µM); MIC ([15]; read-out: MIC against VRSA strains): 32 µg/mL (≈ 22.1 µM)
